The text below walks through data of the supplement of paper PMC11061612.

Each structure is given as a SMILES string.

Assay [1] relates to C3A (Hepatocellular Carcinoma). Description: Bliss excess, mean over the matrix (fraction); higher = more synergy. Put shortly: (§1)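 Cell lines grown in DMEM/F12 or RPMI with 10% FBS were plated in 1536-well plates and held 24 hours at 37°C, 5% CO2 before 72 hours of exposure to two-drug dose matrices, with DMSO typically at 0.2%. CellTiter-Glo 2.0 luminescence gave viability, which was converted to inhibition. Vehicle wells were set to 0 and blank wells to 1. Combination Emax is the second-highest inhibition in the matrix, and Bliss excess is the observed combination effect minus the expected EA + EB − EA·EB, where EA and EB are the single-agent effects.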

In assay [2] the test system is COR-L23 (Non-Small Cell Lung Carcinoma). Described as above. Summed up: as §1
Assay [3] relates to DMS-273 (Small Cell Lung Carcinoma). The description is as above. Put shortly:
as §1

Assay [4] relates to HCC2157 (Breast Carcinoma). Described as above. Put shortly:
as §1

For assay [5], the system named is HT-29 (Colorectal Carcinoma). The description is as above. Summed up: as §1
The subject of another assay is NCI-H2595 (Mesothelioma). The assay is described as above. Summed up: as §1
The next assay relates to RH-1 (Ewing's Sarcoma). The assay is described as above. Summed up: as §1
Assay [6] relates to SW1783 (Low Grade Glioma). The assay is described as above. Summed up: as §1
For assay [7], the system named is SW756 (Cervical Carcinoma). The description is as above. Put shortly:
as §1

In assay [8] the test system is SW780 (Bladder Carcinoma). The assay is described as above. Summed up:
as §1

Assay [9] relates to U-266 (Plasma Cell Myeloma). Described as above. Summed up:
as §1

For assay [10], the system named is 697 (B-Lymphoblastic Leukemia). The experiment in a line: combination Emax (second highest fraction inhibited in the dose matrix, 72 h); higher = more inhibition; extreme values may be limits of the assay. Put shortly:
as §1

In assay [11] the test system is DMS-273 (Small Cell Lung Carcinoma). The assay is described as above. Put shortly: as §1
Another assay concerns ES7 (Ewing's Sarcoma). The description is as above. Put shortly:
as §1

The subject of assay [12] is HPAC (Pancreatic Carcinoma). The description is as above. Put shortly:
as §1

Assay [13] concerns JiyoyeP-2003 (Burkitt's Lymphoma). The assay is described as above. Put shortly: as §1
Assay [14] concerns KM-H2 (Hodgkin's Lymphoma). The description is as above. Summed up:
as §1

Assay [15] relates to LU-99A (Non-Small Cell Lung Carcinoma). The assay is described as above. Summed up: as §1
The test system of assay [16] is SUIT-2 (Pancreatic Carcinoma). The assay is described as above. Summed up:
as §1

In assay [17] the test system is U-266 (Plasma Cell Myeloma). The description is as above. Summed up:
as §1
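Throughout, for Bliss excess, mean over the matrix: after 72 h of two-drug dosing.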

As for `CC(=O)c1c(C)c2cnc(Nc3ccc(N4CCNCC4)cn3)nc2n(C2CCCC2)c1=O` [Palbociclib] + Cc1c2c(nn1C)CSCc1cc(n(C)n1)CSc1cc(c3ccccc3c1)OCCCc1c(C(=O)O)n(C)c3c-2c(Cl)ccc13 [AZD5991] (first compound max 10 µM, 7x7, partner max 1 µM), the Bliss excess is 0.0027 in [1]; -0.0472 in [2]; -0.0565 in assay [3]; -0.0106 in [4]; 0.0058 in [5]; -0.0622 in the assay with NCI-H2595 (Mesothelioma). Besides, the Bliss excess in the assay with RH-1 (Ewing's Sarcoma) is -0.0722; in [6] it was -0.0248; in assay [7], -0.0749; in assay [8] it was -0.0441; in [9], -0.019. Also, the “combination Emax” value in assay [10] amounted to 1; in assay [11], 0.94; in the assay with ES7 (Ewing's Sarcoma) it was 0.714; in assay [12] it was 0.329; in assay [13] it was 0.588; in assay [14], 0.567. For the same molecule, the results for the “combination Emax” value in assay [15], in assay [16] and in [17] were 0.346, 0.445 and 0.872, respectively.

Take `NC1(C(=O)N[C@@H](CCO)c2ccc(Cl)cc2)CCN(c2ncnc3[nH]ccc23)CC1` [Capivasertib] + CC(C)n1c(=O)n(C)c2cnc3cc(F)c(-c4ccc(OCCCN5CCCCC5)nc4)cc3c21 [AZD1390] (first compound max 10 µM, 7x7, partner max 0.3 µM): the Bliss excess in assay [1] is -0.0724; in assay [2], -0.0579; in assay [3], -0.0281; in assay [4], 0.002; in assay [5], -0.0376; in the assay on NCI-H2595 (Mesothelioma), -0.0609. For the same molecule, the Bliss excess was -0.0292 in the assay with RH-1 (Ewing's Sarcoma); -0.0625 in [6]; -0.0647 in assay [7]; -0.0715 in [8]; -0.101 in assay [9]. Besides, the “combination Emax” value in assay [10] worked out at 0.59; in assay [11], 0.71; with ES7 (Ewing's Sarcoma), 0.446; in assay [12], 0.252; in assay [13], 0.685; in assay [14] it was 0.222. The results for the “combination Emax” value in [15], in assay [16] and in assay [17] were 0.407, 0.139 and 0.139, respectively.

As for `CN(C)CCCOc1ccc(-c2ccc3ncc4c(c3c2)n(C2CCOCC2)c(=O)n4C)cn1` [AZD0156] + O=C(c1cc(Cc2n[nH]c(=O)c3ccccc23)ccc1F)N1CCN(C(=O)C2CC2)CC1 [Olaparib] (first compound max 3 µM, partner max 3 µM), the Bliss excess in assay [1] was -0.0171; in assay [2], -0.0155; in [3], 0.155; in [4] it was 0.0313; in [5], 0.015; with NCI-H2595 (Mesothelioma), -0.0288. Besides, the Bliss excess in the assay with RH-1 (Ewing's Sarcoma) is 0.265; in assay [6], 0.007; in assay [7] it was -0.0192; in assay [8], -0.0007; in assay [9] it was -0.106. In addition, the “combination Emax” value in assay [10] is 0.97; in assay [11], 0.433; with ES7 (Ewing's Sarcoma), 0.853; in assay [12], 0.36; in assay [13], 0.311; in assay [14], 0.401. Further, the “combination Emax” value in [15] stood at 0.408; in assay [16], 0.195; in assay [17] it was 0.171.

Regarding `CN(CCO)CC[C@H](CSc1ccccc1)Nc1ccc(S(=O)(=O)NC(=O)c2ccc(N3CCC([C@@H](O)c4ccccc4-c4ccc(Cl)cc4)CC3)cc2)cc1S(=O)(=O)C(F)(F)F` [AZD4320] + C=CCn1c(=O)c2cnc(Nc3ccc(N4CCN(C)CC4)cc3)nc2n1-c1cccc(C(C)(C)O)n1 [AZD1775] (first compound max 1 µM, partner max 1 µM), the Bliss excess was -0.0619 in assay [1]; -0.006 in assay [2]; -0.0229 in assay [3]; -0.0386 in assay [4]; 0.0055 in [5]; -0.0113 in the assay on NCI-H2595 (Mesothelioma). For the same molecule, the Bliss excess in the assay on RH-1 (Ewing's Sarcoma) was 0.0413; in [6], 0.0433; in [7], -0.0225; in assay [8], 0.0079; in assay [9] it was 0.1. Further, the “combination Emax” value in assay [10] came to 1; in assay [11] it was 0.708; with ES7 (Ewing's Sarcoma), 0.935; in [12] it was 1; in [13], 0.992; in assay [14], 0.979. For the same molecule, the “combination Emax” value in [15] came out at 0.762; in assay [16], 0.491; in assay [17], 0.95.

On to `Cc1c2c(nn1C)CSCc1cc(n(C)n1)CSc1cc(c3ccccc3c1)OCCCc1c(C(=O)O)n(C)c3c-2c(Cl)ccc13` [AZD5991] + CN(C)CCCOc1ccc(-c2ccc3ncc4c(c3c2)n(C2CCOCC2)c(=O)n4C)cn1 [AZD0156] (first compound max 1 µM, 7x7, partner max 1 µM), for which the Bliss excess in assay [1] is -0.0266; in assay [2], -0.0086; in [3], 0.0401; in assay [4], -0.012; in [5] it was 0.0078; with NCI-H2595 (Mesothelioma), -0.0082. For the same molecule, the Bliss excess is 0.0081 with RH-1 (Ewing's Sarcoma); -0.0074 in [6]; -0.0015 in [7]; -0.0103 in assay [8]; 0.0057 in assay [9]. In addition, the “combination Emax” value in assay [10] is 1; in [11] it was 0.976; in the assay with ES7 (Ewing's Sarcoma) it was 0.726; in assay [12] it was 0.586; in [13], 0.756; in assay [14], 0.201. For the same molecule, the “combination Emax” value is 0.334 in assay [15], 0.217 in assay [16] and 0.919 in [17].

With `COc1nnc2ccc(N3CCC(c4ccc(OCCN5CCN(C)C(=O)[C@H]5C)cc4)CC3)nn12` [AZD5153] + CC1(C)CCC(CN2CCN(c3ccc(C(=O)NS(=O)(=O)c4ccc(NCC5CCOCC5)c([N+](=O)[O-])c4)c(Oc4cnc5[nH]ccc5c4)c3)CC2)=C(c2ccc(Cl)cc2)C1 [Venetoclax] (first compound max 1 µM, 7x7, partner max 1 µM), the Bliss excess in assay [1] is -0.105; in assay [2], -0.0504; in assay [3], -0.0627; in assay [4], 0.0328; in [5], -0.0288; in the assay on NCI-H2595 (Mesothelioma), 0.0185. Also, the Bliss excess in the assay with RH-1 (Ewing's Sarcoma) was -0.0391; in assay [6] it was -0.0347; in [7], -0.0461; in [8] it was -0.0071; in assay [9], -0.157. Moreover, the “combination Emax” value stood at 1 in [10]; 0.749 in [11]; 0.565 in the assay on ES7 (Ewing's Sarcoma); 0.535 in [12]; 0.833 in assay [13]; 0.377 in assay [14]. In addition, the figures for the “combination Emax” value in assay [15], in assay [16] and in [17] were 0.456, 0.371 and 0.272, respectively.

In the case of `Cc1cc2ncnn2cc1Nc1ncc2c(n1)n(C1CCOCC1)c(=O)n2C` [AZD7648] + C[C@@H]1COCCN1C2=NC(=NC(=C2)C3(CC3)[S@](=N)(=O)C)C4=C5C=CNC5=NC=C4 [AZD6738] (first compound max 10 µM, 7x7, partner max 10 µM), the Bliss excess in [1] was 0.0722; in assay [2] it was -0.0121; in [3] it was 0.0094; in assay [4], -0.0528; in [5] it was 0.0118; with NCI-H2595 (Mesothelioma) it was -0.0059. Also, the Bliss excess is -0.0016 in the assay with RH-1 (Ewing's Sarcoma); 0.0913 in assay [6]; 0.0048 in [7]; 0.0476 in assay [8]; -0.0168 in assay [9]. Besides, the “combination Emax” value in assay [10] was 1; in [11] it was 0.788; with ES7 (Ewing's Sarcoma), 0.766; in [12], 0.672; in assay [13], 0.929; in assay [14] it was 0.774. Moreover, the “combination Emax” value in assay [15] amounted to 0.681; in [16] it was 0.611; in assay [17], 0.508.
